Laboratory results reported in patent publication US20240360178A1, “MACROCYCLIC IMMUNOMODULATORS” (Bristol-Myers Squibb Company, priority 2021, published 2024).
Positions of bridges follow the written chain, without caps; N, C: chain ends. Non-standard residues stand in square brackets, D forms with d. Residues, ends and D or L forms follow the SMILES beside them. ξ: configuration not given here. *: point of attachment. Phe(3,4,5-F3) = N[C@@H](Cc1cc(F)c(F)c(F)c1)C(=O)O; Phe(4-COOH) = N[C@@H](Cc1ccc(C(=O)O)cc1)C(=O)O; Bip = N[C@@H](Cc1ccc(-c2ccccc2)cc1)C(=O)O; Phe(3-Me) = Cc1cccc(C[C@H](N)C(=O)O)c1; Val(3-OH) = CC(C)(O)[C@H](N)C(=O)O; NMeF = CN[C@@H](Cc1ccccc1)C(=O)O; 4Pal = N[C@@H](Cc1ccncc1)C(=O)O; Cha = N[C@@H](CC1CCCCC1)C(=O)O; dPip = O=C(O)[C@H]1CCCCN1; Carboxymethyl = O=C(O)C*; NMeA = CN[C@@H](C)C(=O)O; Nle = CCCC[C@H](N)C(=O)O; Orn = NCCC[C@H](N)C(=O)O; Dab = NCC[C@H](N)C(=O)O; Dap = NC[C@H](N)C(=O)O; ξV = CC(C)C(N)C(=O)O; Sar = CNCC(=O)O

molecular target: T1, human PD-1 (Jurkat-PD-1 cells) / PE-labeled human PD-L1-Ig (Homo sapiens, UniProt Q15116); test: Jurkat-PD-1 Cell Binding High-Content Screening Assay (CBA); Jurkat hPD1-PDL1 assay; settings: Jurkat cell line over-expressing human PD-1; PE-labeled PD-L1-Ig 20 nM final; compound incubated 2 hours at 37° C.; read-out: Jurkat HPD1-PDL1 IC50
T1 construct: expressed in transfected cells; host or cells: Jurkat cell line over-expressing human PD-1
T1 sequence (Q15116 25-288): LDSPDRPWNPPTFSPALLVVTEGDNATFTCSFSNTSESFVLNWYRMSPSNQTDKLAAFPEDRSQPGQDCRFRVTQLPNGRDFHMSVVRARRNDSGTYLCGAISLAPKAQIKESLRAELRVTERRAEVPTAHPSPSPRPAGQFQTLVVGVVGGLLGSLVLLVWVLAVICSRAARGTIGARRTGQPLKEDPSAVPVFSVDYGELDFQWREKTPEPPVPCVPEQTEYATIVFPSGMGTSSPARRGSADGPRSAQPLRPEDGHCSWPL
How it was run: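 Jurkat-hPD-1 cells; cpd 2 h, 37° C; then PE-PD-L1-Ig 20 nM final in DMEM/10% FCS; high-content imaging read-out.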

| SMILES | IC50 |
| --- | --- |
| CC(C)C[C@@H]1NC(=O)[C@H](Cc2c[nH]c3ccccc23)NC(=O)[C@H](CC(=O)O)NC(=O)[C@H](Cc2ccc(O)cc2)NC(=O)[C@H](Cc2ccccc2)NC(=O)CSC[C@@H](C(=O)NCC(N)=O)NC(=O)[C@H](CCCNC(=N)N)NC(=O)[C@H](C(C)C)NC(=O)[C@H](CC(C)C)NC(=O)[C@H](CC(N)=O)NC(=O)CN(C)C(=O)[C@H](C)N(C)C(=O)[C@H](C(C)C)NC(=O)[C@H](Cc2ccc(-c3ccccc3)cc2)NC1=O [Example 1226] ({CH2CO}-FYDWL[Bip]V[NMeA][Sar]NLVRCG-NH2; thioether N-14) | 890 nM |
| CC(C)C[C@@H]1NC(=O)[C@H](Cc2c[nH]c3ccccc23)NC(=O)[C@H](CC(=O)O)NC(=O)[C@H](Cc2ccc(O)cc2)NC(=O)[C@H](Cc2ccccc2)NC(=O)CSC[C@@H](C(=O)NCC(N)=O)NC(=O)[C@H](CO)NC(=O)[C@H](C(C)C)NC(=O)[C@H](CC(C)C)NC(=O)[C@H](CCCNC(=N)N)NC(=O)CN(C)C(=O)[C@H](C)N(C)C(=O)[C@H](CC(=O)O)NC(=O)[C@H](Cc2ccc(-c3ccccc3)cc2)NC1=O [Example 1237] ({CH2CO}-FYDWL[Bip]D[NMeA][Sar]RLVSCG-NH2; thioether N-14) | 520 nM |
| CC(C)C[C@@H]1NC(=O)[C@H](Cc2c[nH]c3ccccc23)NC(=O)[C@H](CC(=O)O)NC(=O)[C@H](Cc2ccc(O)cc2)NC(=O)[C@H](Cc2cnc[nH]2)NC(=O)CSC[C@@H](C(=O)NCC(N)=O)NC(=O)[C@H](CO)NC(=O)[C@H](C(C)C)NC(=O)[C@H](CC(C)C)NC(=O)[C@H](CC(N)=O)NC(=O)CN(C)C(=O)[C@H](C)N(C)C(=O)[C@H](C(C)C)NC(=O)[C@H](Cc2ccc(-c3ccccc3)cc2)NC1=O [Example 1150] ({CH2CO}-HYDWL[Bip]V[NMeA][Sar]NLVSCG-NH2; thioether N-14) | 690 nM |
| CC(C)C[C@@H]1NC(=O)[C@H](Cc2c[nH]c3ccccc23)NC(=O)[C@H](CC(=O)O)NC(=O)[C@H](Cc2ccc(O)cc2)NC(=O)[C@H](Cc2ccccc2)NC(=O)CSC[C@@H](C(=O)N[C@@H](C)C(N)=O)NC(=O)[C@H](CO)NC(=O)[C@H](C(C)C)NC(=O)[C@H](CC(C)C)NC(=O)[C@H](CCC(=O)O)NC(=O)CN(C)C(=O)[C@H](C)N(C)C(=O)[C@H](C(C)C)NC(=O)[C@H](Cc2ccc(-c3ccccc3)cc2)NC1=O [Example 1108] ({CH2CO}-FYDWL[Bip]V[NMeA][Sar]ELVSCA-NH2; thioether N-14) | 340 nM |
| CCCC[C@@H]1NC(=O)[C@H](CC(N)=O)NC(=O)[C@H]2CCCN2C(=O)[C@H](C)N(C)C(=O)[C@H](C(C)C)NC(=O)[C@H](Cc2ccc(-c3ccccc3)cc2)NC(=O)[C@H](CC(C)C)NC(=O)[C@H](Cc2c[nH]c3ccccc23)NC(=O)[C@H](CC(=O)O)NC(=O)[C@H](Cc2ccc(O)cc2)NC(=O)[C@H](Cc2ccccc2)NC(=O)CSC[C@@H](C(=O)N[C@@H](C)C(N)=O)NC(=O)[C@H]([C@@H](C)O)NC(=O)[C@H](CCCNC(=N)N)NC1=O [Example 1121] ({CH2CO}-FYDWL[Bip]V[NMeA][dP]N[Nle]RTCA-NH2; thioether N-14) | 430 nM |
| CC(C)C[C@@H]1NC(=O)[C@H](CCCNC(=N)N)NC(=O)[C@H](Cc2ccccc2)N(C)C(=O)[C@H](C)N(C)C(=O)[C@H](CCCNC(=N)N)NC(=O)[C@H](Cc2ccc(-c3ccccc3)cc2)NC(=O)[C@H](C(C)C)NC(=O)[C@H](Cc2c[nH]c3ccccc23)NC(=O)[C@H](CC(=O)O)NC(=O)[C@H](Cc2ccc(O)cc2)NC(=O)[C@H](Cc2ccccc2)NC(=O)CSC[C@@H](C(=O)N[C@H](C)C(N)=O)NC(=O)[C@H](CO)NC(=O)[C@H](C(C)C)NC1=O [Example 1331] ({CH2CO}-FYDWV[Bip]R[NMeA][NMeF]RLVSC[dA]-NH2; thioether N-14) | 80 nM |
| CC(C)C[C@@H]1NC(=O)[C@H](CC(N)=O)NC(=O)CN(C)C(=O)[C@H](C)N(C)C(=O)[C@H](C(C)C)NC(=O)[C@H](Cc2ccc(-c3ccccc3)cc2)NC(=O)[C@H](Cc2ccc(O)cc2)NC(=O)[C@H](Cc2c[nH]c3ccccc23)NC(=O)[C@H](CC(=O)O)NC(=O)[C@H](Cc2ccc(O)cc2)NC(=O)[C@H](Cc2ccccc2)NC(=O)CSC[C@@H](C(=O)NCC(N)=O)NC(=O)[C@H](CO)NC(=O)[C@H](C(C)C)NC1=O [Example 1224] ({CH2CO}-FYDWY[Bip]V[NMeA][Sar]NLVSCG-NH2; thioether N-14) | 160 nM |
| CC(C)C[C@@H]1NC(=O)[C@H](Cc2c[nH]c3ccccc23)NC(=O)[C@H](CC(=O)O)NC(=O)[C@H](Cc2ccc(C(=O)O)cc2)NC(=O)[C@H](Cc2ccccc2)NC(=O)CSC[C@@H](C(=O)N[C@@H](C)C(N)=O)NC(=O)[C@H](CO)NC(=O)[C@H](C(C)C)NC(=O)[C@H](CC(C)C)NC(=O)[C@H](CC(N)=O)NC(=O)CN(C)C(=O)[C@H](C)N(C)C(=O)[C@H](C(C)C)NC(=O)[C@H](Cc2ccc(-c3ccccc3)cc2)NC1=O [Example 1066] ({CH2CO}-F[Phe(4-COOH)]DWL[Bip]V[NMeA][Sar]NLVSCA-NH2; thioether N-14) | 160 nM |
| CC(C)C[C@@H]1NC(=O)[C@H](Cc2c[nH]c3ccccc23)NC(=O)[C@H](CC(=O)O)NC(=O)[C@H](Cc2cc(F)c(F)c(F)c2)NC(=O)[C@H](Cc2ccccc2)NC(=O)CSC[C@@H](C(=O)N[C@@H](C)C(N)=O)NC(=O)[C@H](CO)NC(=O)[C@H](C(C)C)NC(=O)[C@H](CC(C)C)NC(=O)[C@H](CC(N)=O)NC(=O)CN(C)C(=O)[C@H](C)N(C)C(=O)[C@H](C(C)C)NC(=O)[C@H](Cc2ccc(-c3ccccc3)cc2)NC1=O [Example 1146] ({CH2CO}-F[Phe(3,4,5-F3)]DWL[Bip]V[NMeA][Sar]NLVSCA-NH2; thioether N-14) | 650 nM |
| CC[C@H](C)[C@@H]1NC(=O)[C@H](Cc2ccc(-c3ccccc3)cc2)NC(=O)[C@H](CC(C)C)NC(=O)[C@H](Cc2c[nH]c3ccccc23)NC(=O)[C@H](CC(=O)O)NC(=O)[C@H](Cc2ccc(O)cc2)NC(=O)[C@H](Cc2ccccc2)NC(=O)CSC[C@@H](C(=O)NCC(N)=O)NC(=O)[C@H](CO)NC(=O)[C@H](C(C)C)NC(=O)[C@H](CC(C)C)NC(=O)[C@H](CC(N)=O)NC(=O)CN(C)C(=O)[C@H](C)N(C)C1=O [Example 1133] ({CH2CO}-FYDWL[Bip]I[NMeA][Sar]NLVSCG-NH2; thioether N-14) | 540 nM |
| CC(C)C[C@@H]1NC(=O)[C@H](CCCNC(=N)N)NC(=O)[C@H](Cc2ccccc2)N(C)C(=O)[C@H](C)N(C)C(=O)[C@H](CCCNC(=N)N)NC(=O)[C@H](Cc2ccc(-c3ccccc3)cc2)NC(=O)[C@H](C(C)C)NC(=O)[C@H](Cc2c[nH]c3ccccc23)NC(=O)[C@H](CC(=O)O)NC(=O)[C@H](Cc2ccc(O)cc2)NC(=O)[C@H](Cc2c[nH]c3ccccc23)NC(=O)CSC[C@@H](C(=O)NCC(N)=O)NC(=O)[C@H](CO)NC(=O)[C@H](C(C)C)NC1=O [Example 1157] ({CH2CO}-WYDWV[Bip]R[NMeA][NMeF]RLVSCG-NH2; thioether N-14) | 830 nM |

Stronger by IC50, values ahead:

| IC50 | SMILES |
| --- | --- |
| 50 nM | CC(C)C[C@@H]1NC(=O)[C@H](Cc2c[nH]c3ccccc23)NC(=O)[C@H](CC(=O)O)NC(=O)[C@H](Cc2ccc(OCC(=O)O)cc2)NC(=O)[C@H]([C@@H](C)O)NC(=O)CSC[C@@H](C(=O)N[C@@H](CCN)C(N)=O)NC(=O)[C@H](CO)NC(=O)[C@H](C(C)(C)O)NC(=O)[C@H](CC2CCCCC2)NC(=O)[C@H](CCN)NC(=O)[C@H]2CCCCN2C(=O)[C@H]2CCCN2C(=O)[C@H](C(C)C)NC(=O)[C@H](Cc2ccc(-c3ccccc3)cc2)NC1=O [Example 1188] ({CH2CO}-TY(Carboxymethyl)DWL[Bip]V[dP][dPip][Dab][Cha][Val(3-OH)]SC[Dab]-NH2; thioether N-14) |
| 60 nM | CC(C)C[C@@H]1NC(=O)[C@H](Cc2c[nH]c3ccccc23)NC(=O)[C@H](CC(=O)O)NC(=O)[C@H](Cc2ccc(OCC(=O)O)cc2)NC(=O)[C@H](Cc2ccccc2)NC(=O)CSC[C@@H](C(=O)NCC(N)=O)NC(=O)[C@H](CO)NC(=O)[C@H](C(C)C)NC(=O)[C@H](CC(C)C)NC(=O)[C@H](CC(N)=O)NC(=O)CN(C)C(=O)[C@H](C)N(C)C(=O)[C@H](C(C)C)NC(=O)[C@H](Cc2ccc(-c3ccccc3)cc2)NC1=O [Example 1030] ({CH2CO}-FY(Carboxymethyl)DWL[Bip]V[NMeA][Sar]NLVSCG-NH2; thioether N-14) |
| 70 nM | CC(C)C[C@@H]1NC(=O)[C@H](Cc2c[nH]c3ccccc23)NC(=O)[C@H](CC(=O)O)NC(=O)[C@H](Cc2ccc(O)cc2)NC(=O)[C@H](Cc2ccccc2)NC(=O)CSC[C@@H](C(=O)N[C@@H](C)C(N)=O)NC(=O)[C@H](CO)NC(=O)[C@H](C(C)C)NC(=O)[C@H](CC(C)C)NC(=O)[C@H](CCC(N)=O)NC(=O)[C@H]2CCCN2C(=O)[C@H](C)N(C)C(=O)[C@H](C(C)C)NC(=O)[C@H](Cc2ccc(-c3ccccc3)cc2)NC1=O [Example 1037] ({CH2CO}-FYDWL[Bip]V[NMeA][dP]QLVSCA-NH2; thioether N-14) |
| 10 nM | Cc1cccc(C[C@@H]2NC(=O)[C@H](CC(=O)O)NC(=O)[C@H](Cc3ccncc3)NC(=O)[C@H](CN)NC(=O)CSC[C@@H](C(=O)N[C@@H](C)C(N)=O)NC(=O)[C@H]([C@@H](C)O)NC(=O)[C@H](C(C)C)NC(=O)[C@H](CC3CCCCC3)NC(=O)[C@H](CCN)NC(=O)[C@H](Cc3ccccc3)N(C)C(=O)[C@H](CCCN)NC(=O)[C@H](CCC(=O)O)NC(=O)[C@H](Cc3ccc(-c4ccccc4)cc3)NC(=O)C(C(C)C)NC2=O)c1 (stereo partly shown) [Example 1445] ({CH2CO}-[Dap][4Pal]D[Phe(3-Me)][ξV][Bip]E[Orn][NMeF][Dab][Cha]VTCA-NH2; thioether N-14) |
| 70 nM | CC(C)C[C@@H]1NC(=O)[C@H](Cc2c[nH]c3ccccc23)NC(=O)[C@H](CC(=O)O)NC(=O)[C@H](Cc2ccc(C(=O)O)cc2)NC(=O)[C@H](Cc2ccncc2)NC(=O)CSC[C@@H](C(=O)N[C@@H](CCN)C(N)=O)NC(=O)[C@H](CO)NC(=O)[C@H](C(C)(C)O)NC(=O)[C@H](CC2CCCCC2)NC(=O)[C@H](CCN)NC(=O)[C@H]2CCCCN2C(=O)[C@H]2CCCN2C(=O)[C@H](C(C)C)NC(=O)[C@H](Cc2ccc(-c3ccccc3)cc2)NC1=O [Example 1189] ({CH2CO}-[4Pal][Phe(4-COOH)]DWL[Bip]V[dP][dPip][Dab][Cha][Val(3-OH)]SC[Dab]-NH2; thioether N-14) |
